In series [1] the target is T1, human α-thrombin (Homo sapiens, UniProt P00734).
T1 construct: human α-thrombin
As to the kind of experiment: ELISA-type assay on thrombin-coated wells. The class given is binding. Particulars: read-out: Dissociation constant estimated from ELISA-type assay. The protocol: Binding to thrombin was evaluated in an ELISA-type assay. Wells of a 96 well plate were coated with 100 μL of 30 μg/mL human α-thrombin and incubated at 4C overnight. The plate was washed twice with DDI H2O and passivated with 3% BSA in 1×PBS buffer for 1 hour. The plate was shaken out and 50 μL of varying concentrations of analyte (DNA tile synbody, DNA tile with each aptamer with the other not present, and each aptamer alone, respectively) were incubated at RT for 1 hour. DNA tiles were biotin-modified at the 5′ end of one of the distal DNA strands 346 (see FIG. 26(a)). The plate was rinsed 10 times in 1×PBS and 50 μL of 1:1000 dilution of streptavidin-HRP in 0.1% BSA in 1×PBS was pipetted and incubated for 1 hour at RT. The plate was again rinsed and 50 μL of TMB was added and incubated at RT for 15 minutes. 50 μL of 0.5M HCl was added and the plate was read immediately. Results are shown in FIG. 27 for the DNA tile synbody 350; the DNA tile with Apt1 but not Apt2 present 352; the DNA tile with Apt2 but not Apt1 present 356; Apt1 alone 354; and Apt2 alone 358. Dissociation constant values estimated from this assay were about 1 nM for the DNA tile synbody, about 10 nM for Apt1 alone, and more than 1 μM for Apt2 alone.

For series [2], the target named is T2, transferrin (Homo sapiens, UniProt P02787). Briefly: SPR (Biacore T100) steady state affinity of mRNA display clones on immobilized transferrin. As to conditions: for Kd: steady state affinity model, 32 to 0.0625 μM. The class given is binding. The protocol: Five clones (see Table 15) were selected, synthesized and purified by HPLC for characterization by surface plasmon resonance (SPR) (T100 instrument from Biacore). Transferrin was immobilized using standard NHS/EDC immobilization chemistry according to the methods described in Frostell-Karlsson, A., Remaeus, A., Andersson, K., Borg, P., Hamalainen, M., and Karlsson, R. (2000) J. Med. Chem. 43, resulting in 9758 RU of immobilized protein. HPLC purified peptides were injected over the surface and sensograms were recorded at multiple concentrations (32, 16, 8, 4, 2, 1, 0.5, 0.25, 0.125. and 0.0625 μM). Affinity plots were generated for each peptide and fit using a steady state affinity model.
T2 sequence (P02787 20-698): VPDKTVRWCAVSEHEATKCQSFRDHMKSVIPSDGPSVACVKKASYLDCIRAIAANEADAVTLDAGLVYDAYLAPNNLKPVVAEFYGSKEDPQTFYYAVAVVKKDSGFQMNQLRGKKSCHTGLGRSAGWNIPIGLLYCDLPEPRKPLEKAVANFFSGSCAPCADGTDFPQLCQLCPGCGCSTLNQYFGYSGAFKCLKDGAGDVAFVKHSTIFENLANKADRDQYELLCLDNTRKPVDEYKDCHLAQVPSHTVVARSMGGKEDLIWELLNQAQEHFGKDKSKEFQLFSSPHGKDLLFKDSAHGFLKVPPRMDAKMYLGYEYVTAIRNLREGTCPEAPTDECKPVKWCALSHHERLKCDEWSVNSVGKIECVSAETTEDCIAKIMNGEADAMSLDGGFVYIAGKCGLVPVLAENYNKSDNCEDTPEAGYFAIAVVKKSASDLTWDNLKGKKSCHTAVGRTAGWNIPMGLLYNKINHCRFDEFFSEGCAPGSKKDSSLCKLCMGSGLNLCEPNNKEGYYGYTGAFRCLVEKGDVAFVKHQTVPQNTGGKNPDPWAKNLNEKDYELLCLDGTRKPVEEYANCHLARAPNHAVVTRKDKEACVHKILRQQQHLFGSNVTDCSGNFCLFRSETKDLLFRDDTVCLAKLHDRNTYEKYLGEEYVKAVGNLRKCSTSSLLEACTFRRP

Series [3] has as its target T2, transferrin. As to the kind of experiment: SPR characterization of TRF26 lead and point-mutant peptides against transferrin. In kind it is binding. The source says: In this example, a small library of ˜300 variant peptides was synthesized in 96-well format. […] The lead peptide (TRF26, see Table 6) was selected as a moderate-affinity binder of the target protein transferrin. The library of variant peptides contained all possible point mutations of the lead peptide using the following set of amino acids {M,A,V,P,L,I,G,W,Y,F,S,T,N,Q,K,R,H,D,E}.
Relative affinities/specificities of the lead peptide and point-mutants were characterized using SPR as follows:
Peptide sample preparation. Lyophilized peptides were individually diluted in 96-well plates to approximately equal concentration (1 mg/ml) in 1×PBST buffer pH 7.4. Peptide sample purity was determined by MALDI-MS analysis of the diluted peptide samples.
SPR gold substrate preparation. Gold substrates used for SPR analysis were first modified with a monolayer of cysteamine by immersing the substrate in a 10 mM cysteamine/EtOH solution for 1 hour, thereby exposing a layer of primary amines just above the gold surface. After addition of the monolayer, the gold substrates were rinsed extensively with EtOH then further modified by immersing in a solution of 2 mM Sulfo-SMCC/PBS pH 7.4 for 1 hour, thereby exposing a surface-bound maleimide which can be used to covalently couple peptides to the gold substrate via the C-terminal cysteine.
Peptide spotting on gold substrate. Diluted peptide samples were spotted on the modified gold substrate using a commercial robotic spotter in an array format. The array contained ˜440 peptide spots (including replicates and blank reference spots), each spot having ˜200 um diameter. Spotted substrates were kept in a humidity chamber overnight to ensure complete reaction between the surface exposed maleimide and the C-terminal cysteine in the peptides. After ˜12-hours, the substrates were washed with PBST buffer to remove excess peptide not bound to the gold substrate. Finally, unreacted maleimide groups were quenched using a 2 mM β-mercaptoethanol/PBST solution thereby presenting a hydrophilic surface in regions not containing peptide.
Determination of target affinity using SPR. Gold substrates containing arrays of peptide variants and the lead peptide were loaded into a FlexChip SPR (Biacore) instrument. To ensure binding specificity, three injections of 0.2% BSA sample were flowed across the array using the FlexChip fluidics. The array was then washed with a continuous 1 mL/min flow of PBST buffer until the sensorgram reached a stable baseline. After reaching a baseline, the array was washed 2 additional minutes using PBST, then a 10 μM Transferrin/PBST sample was injected and continuously recycled over the array surface for 8 minutes. After the recycle the array was washed […] with continuous 1 mL/min PBST flow for 10 minutes. Sensorgrams were continuously recorded during the 2 minute prewash (to ensure baseline stability), 8 minute Transferrin sample recycle and post sample recycle wash.
Quantification of relative target affinities. Sensorgram values were taken from the stability region, that is the region ˜10 seconds into the post sample recycle wash. Sensorgram values at this point should allow identification of peptides that have both high levels of target binding and off-rates slower than the lead peptide. […] Data processing included identification of the mutated position at a particular SPR array spot as well as signal normalization relative to the lead peptide (lead peptide=1), enhanced binders have positive values and reduced binders have negative values.
Two TRF26 point-mutants (P6Y, H12F) were selected for further affinity characterization. The P6Y and H12F point-mutants have dissociation constants of 8.6±1.6 μM and 9.8±1.6 μM respectively. […] A TRF26 double mutant sequence containing the P6Y+H12F mutations was synthesized and characterized.

Series [4] concerns the target T2, transferrin. Briefly: SPR analysis of peptide pairs for binding to distinct sites on immobilized transferrin. An excerpt: The transferrin target was immobilized on a Biacore T100 SPR chip, and candidate polypeptides were applied in 1:1 mixtures in pairs and response data obtained, in accordance with the methods described in Example 4 above. As illustrated in FIGS. 12A-D, upon flowing candidate polypeptides over the immobilized target, ideally one polypeptide applied alone would bind to a first binding site on the target and produce a first characteristic SPR response level (FIG. 12A), the other polypeptide would bind to a second, distinct binding site on the target, producing a second characteristic response level (FIG. 12B), and a mixture of the two polypeptides together (at the same concentrations as before) would produce a response level approximating the sum of the response levels produced by each polypeptide alone, as the polypeptides bind to distinct binding sites (FIG. 12C).

Series [5] deals with TNF-α (Homo sapiens, UniProt P01375). Briefly: SPR (Biacore A100) of TNF1 lead and mutant peptides on captured TNF-α. In kind it is binding. Particulars: for koff: kinetic fits of sensorgrams, read-out: off-rate koff. The source says: Scanning Mutagenesis of the TNF1 Lead Peptide. After lead identification, the next step in the AMPLI algorithm is characterization of point mutations in the lead heteropolymer. Using short peptides makes it chemically feasible to synthesize a significant fraction of the point-mutant space, which can then be screened for enhanced point mutations. For example, all possible point mutations in the 17 randomized positions using all 20 natural amino acids could be synthesized and screened within a single 384-well plate (323 total point-mutants). However, libraries containing all 20 natural amino acids are not required for affinity optimization of protein-protein interactions. A library of TNF1 point-mutants containing all substitutions of the amino acid set {Y, A, D, S, K, N, V, W} in each of the 17 randomized positions (132 unique point-mutants) was synthesized. Tyrosine (Y), alanine (A), aspartic acid (D) and serine (S) were selected because of their effectiveness in producing high affinity interactions when substituted into the complementary-determining regions (CDRs) of synthetic antibodies (Felouse, Proceedings of the National Academy of Sciences 101(34):12467, 2004), lysine (K) was selected to balance the charge in the substitution set, asparagine (N), valine (V) and tryptophan (W) were selected to span the hydropathicity range (Kyte J & Doolittle R F, Journal of Molecular Biology 157(1):105-132, 1982). […] This concentration was used to increase the high-end dynamic range for quantifying enhancing point mutations at the expense of low-end dynamic range for quantifying detrimental point mutations.
Chain of TNF-α (P01375 77-233 limits assumed, species assumed): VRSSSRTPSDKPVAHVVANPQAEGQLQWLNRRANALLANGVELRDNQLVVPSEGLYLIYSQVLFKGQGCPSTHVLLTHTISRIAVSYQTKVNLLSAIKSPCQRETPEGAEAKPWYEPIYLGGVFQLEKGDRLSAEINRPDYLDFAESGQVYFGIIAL
Point-mutant libraries were prepared in 96-well stock plates From the stock plate, peptides were diluted to 50 μM concentration in Biacore HBS-EP buffer (GE Healthcare, Piscataway, N.J.) containing 1 mg/ml carboxymethyl-dextran (Sigma-Aldrich, St. Louis, Mo.) to reduce non-specific binding to the CM-5 SPR chip surface. […] Spot 3 contained only immobilized neutravidin and served as a reference spot.
Using the prepared 96-well plates and Biacore A100 SPR instrument, four peptides were flowed separately, in parallel, through the four flow cells over all 4 TNF-α spots and the neutravidin reference spot, with a 60 second association phase and 300 second dissociation phase. SPR sensorgrams were recorded for each peptide response with all 4 TNF-α spots and the neutravidin reference spot across the four flow cells on the SPR chip. […]
Purified point-mutant affinities were measured on the Biacore A100 using SPR equilibrium binding response across a series of peptide concentrations on an SPR chip with TNF-α captured as described above. […]

The mark [6] stands for this setting: observed, read-out: dissociation constant.
[7] abbreviates: Table 13A, lead and point-mutants.

Where a SMILES comes first, the peptide text is derived from it. Where no end group is shown, it is not given here.

Take “5′-AGTCCGTGGTAGGGCAGGTTGGGGTGACT-3 [Apt1 alone]”: in series [1], the Kd was around 0.01 µM.
With 5′-GGTTGGTGTGGTTGG-3′ [Apt2 alone], the Kd in series [1] was above 1 µM.
On to `CC(C)C[C@H](NC(=O)[C@H](CCCNC(=N)N)NC(=O)[C@@H]1CCCN1C(=O)[C@@H]1CCCN1C(=O)[C@H](CC(=O)O)NC(=O)[C@@H]1CCCN1C(=O)[C@H](C)NC(=O)[C@@H]1CCCN1C(=O)[C@H](CS)NC(=O)[C@H](Cc1c[nH]c2ccccc12)NC(=O)CNC(=O)[C@@H](NC(=O)[C@@H]1CCCN1)[C@@H](C)O)C(=O)N[C@@H](Cc1c[nH]cn1)C(=O)N1CCC[C@H]1C(=O)N[C@@H](CC(C)C)C(=O)N[C@@H](Cc1c[nH]cn1)C(=O)NCC(=O)N[C@@H](CO)C(=O)N[C@@H](CS)C(=O)O` [TBPM003] (H-PTGWCPAPDPPRLHPLHGSC-OH), for which the Kd in series [2] is above 300 µM.
The same measure, in the same setting: in the case of `C[C@H](N)C(=O)N[C@H](C(=O)N[C@@H](CCCNC(=N)N)C(=O)N[C@@H](Cc1c[nH]c2ccccc12)C(=O)N[C@@H](CS)C(=O)N1CCC[C@H]1C(=O)N[C@@H](CO)C(=O)N[C@@H](C)C(=O)N[C@@H](CCCNC(=N)N)C(=O)N1CCC[C@H]1C(=O)N[C@@H](C)C(=O)N[C@H](C(=O)N1CCC[C@H]1C(=O)N[C@H](C(=O)N[C@H](C(=O)N[C@@H](C)C(=O)N[C@H](C(=O)NCC(=O)N[C@@H](CO)C(=O)N[C@@H](CS)C(=O)O)[C@@H](C)O)[C@@H](C)O)[C@@H](C)O)[C@@H](C)O)[C@@H](C)O` [TBPM021] (H-ATRWCPSARPATPTTATGSC-OH) it was above 300 µM.
Take AHKVVPQRQIRFAYNRYGSC [H12F]: in series [3] (Table 13C), the “Binding ΔG” value was -6.85 ± 0.10 kcal/mol, the “Component Binding ΔG Contribution” value was -1.29 ± 0.14 kcal/mol and the “Kd Fold-Change Relative to Lead” value came out at 8.8 ± 2.0. Also, the Kd in series [3] (setting [6]) came to 9.8 ± 1.6 µM.
For AHKVVPQRQIRHAYNRYGSC [TRF26], the “Binding ΔG” value in series [3] (Table 13C) was -5.56 ± 0.10 kcal/mol. Also, in series [3] (Table 13C, read-out: Kd), the Kd was found to be 85 ± 14 µM. Moreover, in series [4], the “binding sites on transferrin (pairs applied in 1:1 mixtures)” value is reported as “bind distinct sites on transferrin”.
For the compound AHKVVPQRQMRHAYSRYGSC [TBPM023], the “affinity improvement in comparison to the original peptide TRF26” value in series [2] was “more than 10 fold”.
As to AHKVVYQRQIRFAYNRYGSC [P6Y + H12F], in series [3] (Table 13D), the “Observed Binding ΔG” value was -8.68 ± 0.15 kcal/mol and the “Observed Kd Fold-Change Relative to Lead” value is on record as 190 ± 57. The “Predicted Binding ΔG” value in series [3] (Table 13D, energetic additivity) was -8.22 ± 0.18 kcal/mol. Besides, the Kd in series [3] (setting [6]) stood at 0.5 ± 0.1 µM.
Turning to AHKVVYQRQIRHAYNRYGSC [P6Y], in series [3] (Table 13C), the “Binding ΔG” value was -6.93 ± 0.11 kcal/mol, the “Component Binding ΔG Contribution” value was -1.37 ± 0.15 kcal/mol and the “Kd Fold-Change Relative to Lead” value is 10 ± 2.5. Also, the Kd in series [3] (setting [6]) was 8.6 ± 1.6 µM.
Consider FERDPLMMPWSFLQSRQGSC [TNF1], for which, in series [5] (setting [7]), the “Binding ΔG” value was -5.21 ± 0.07 kcal/mol and the Kd was found to be 160 ± 19 µM. Besides, the koff in series [5] was 1.6 ± 0.5 s⁻¹.
FERSYLKMPWKFLQSRQGSC [TNF1-opt]: the koff in series [5] is 0.2 ± 0.02 s⁻¹.
